Reference: PMC11496704, “Synthesis and cytotoxicity studies of novel N-arylbenzo[h]quinazolin-2-amines” (Beilstein Journal of Organic Chemistry, 2024)
Read-outs that look alike come from different tables or passages of the source.

Key:
[1] = test system: DYRKs kinases; parameters: method as in PMID 33422908, PMID 36234686; details: at 100 μM; cited from earlier work
[2] = test system: HuH-7; assay: Cytotoxicity secondary screen (IC50); type: cell-based; details: Homo sapiens, 48 h exposure, mean of triplicates, NE: no effect
Experimental: (§1) Cell culture. Skin normal fibroblastic cells are purchased from Lonza (Basel, Switzerland), HuH-7, Caco-2, MDA-MB-231, HCT-116, PC3, MCF7 and NCI-H727 cancer cell lines were obtained from ATCC (American Type Culture Collection). Cells are grown at 37 °C, 5% CO2 in ATCC recommended media: DMEM for HuH-7, MDA-MB-231, MDA-MB-468 and fibroblast, EMEM for MCF7 and CaCo-2, McCoy’s for HCT-116 and RPMI for PC3 and NCI-H727. All culture media are supplemented by 10% of FBS, 1% of penicillin-streptomycin and 2 mM glutamine.
(§2) Both studies have been performed following the protocols described in a previous paper, see ref. [2].

[3] = test system: PC3; assay: Cytotoxicity secondary screen (IC50); type: cell-based; details: Homo sapiens, PC-3; 48 h exposure, mean of triplicates; NE: no effect
Experimental: as §1, §2

[4] = test system: HCT-116; assay: Cytotoxicity secondary screen (IC50); type: cell-based; details: Homo sapiens, 48 h exposure, mean of triplicates, NE: no effect
Experimental: (§3) Next, we performed a cytotoxicity screening of the nineteen molecules 4a–s, at 25 μM, investigating seven representative cancer cell lines: hepatocellular carcinoma HuH-7, colorectal adenocarcinoma CaCo-2, breast carcinoma MDA-MB-231 and MDA-MB-468, colorectal carcinoma HCT-116, prostate carcinoma PC3 and breast carcinoma MCF7. […] For details see: ref. [2] and Supporting Information File 1, Table S1.
as §1, §2

[5] = test system: Caco-2; assay: Cytotoxicity primary screen (single dose); type: cell-based; details: 48 h exposure, mean of triplicates
Experimental: as §3, §1, §2
(§4) Table S1: Cytotoxicity studies (single dose at 25µM) of N-arylbenzo[h]quinazolin-2-amines 4a–s
(§5) The toxicity is expressed as the percentage of cell survival (from 100 % to 0 %) over DMSO control after 48 h exposure (mean of triplicates).
(§6) Effect of the solvent (DMSO) was studied at 0.25%.

[6] = test system: MDA231; assay: Cytotoxicity primary screen (single dose); type: cell-based; parameters: viability: dose or concentration left out as unconfirmed; details: Homo sapiens, MDA-MB-231, 48 h exposure, mean of triplicates, read-out: percentage of cell survival over DMSO control, MDA231; for viability at 25 µM: single dose 25 μM
Experimental: as §3, §1, §2, §4, §5, §6

[7] = test system: MDA468; assay: Cytotoxicity primary screen (single dose); type: cell-based; parameters: viability: dose or concentration left out as unconfirmed; details: 48 h exposure, mean of triplicates, read-out: percentage of cell survival over DMSO control, MDA468; for viability at 25 µM: single dose 25 μM
Experimental: as §3, §1, §2, §4, §5, §6

[8] = test system: PC3; assay: Cytotoxicity primary screen (single dose); type: cell-based; parameters: viability: dose or concentration left out as unconfirmed; details: Homo sapiens, PC-3, 48 h exposure, mean of triplicates, read-out: percentage of cell survival over DMSO control, PC3; for viability at 25 µM: single dose 25 μM
Experimental: as §3, §1, §2, §4, §5, §6

[9] = test system: MDA-MB-231; assay: Cytotoxicity secondary screen (IC50); type: cell-based; details: Homo sapiens, 48 h exposure, mean of triplicates, NE: no effect
[10] = test system: MDA-MB-468; assay: Cytotoxicity secondary screen (IC50); type: cell-based; details: Homo sapiens, 48 h exposure, mean of triplicates, NE: no effect
[11] = test system: MCF7; assay: Cytotoxicity secondary screen (IC50); type: cell-based; details: Homo sapiens, 48 h exposure, mean of triplicates, NE: no effect
[12] = test system: HuH7; assay: Cytotoxicity primary screen (single dose); type: cell-based; parameters: dose or concentration left out as unconfirmed; details: Homo sapiens, Huh-7; 48 h exposure, mean of triplicates; read-out: percentage of cell survival over DMSO control, HuH7
[13] = test system: normal human fibroblasts; assay: Cytotoxicity secondary screen (IC50); type: cell-based; details: Fibroblast, 48 h exposure, mean of triplicates, NE: no effect, highest concentration tested 25 μM, read-out: IC50 Fibro
Experimental: as §1, §2

[14] = test system: Caco-2; assay: Cytotoxicity secondary screen (IC50); type: cell-based; details: Homo sapiens, 48 h exposure, mean of triplicates, NE: no effect
Experimental: as §3, §1, §2

[15] = test system: HuH7; assay: Cytotoxicity primary screen (single dose); type: cell-based; details: Homo sapiens, Huh-7; single dose 25 μM, 48 h exposure, mean of triplicates; read-out: percentage of cell survival over DMSO control, HuH7
Experimental: as §3, §1, §2, §4, §5, §6

[16] = test system: HCT116; assay: Cytotoxicity primary screen (single dose); type: cell-based; parameters: viability: dose or concentration left out as unconfirmed; details: Homo sapiens, HCT-116, 48 h exposure, mean of triplicates, read-out: percentage of cell survival over DMSO control, HCT116; for viability at 25 µM: single dose 25 μM
Experimental: as §3, §1, §2, §4, §5, §6

[17] = test system: MCF7; assay: Cytotoxicity primary screen (single dose); type: cell-based; parameters: viability: dose or concentration left out as unconfirmed; details: Homo sapiens, 48 h exposure, mean of triplicates, read-out: percentage of cell survival over DMSO control, MCF7; for viability at 25 µM: single dose 25 μM
Experimental: as §3, §1, §2, §4, §5, §6

[18] = test system: seven representative tumor cell lines; assay: Cytotoxicity IC50, summary over several cell lines; type: cell-based; details: read-out: IC50 (span over cell lines)
Experimental: as §1, with “For details see: ref. [2] and Supporting Information File 1, Table S1. […] [table] Cell culture.” for “Cell culture.”, “mM glutamine. Both studies have been performed following the protocols described in a previous paper, see ref. [2].” for “mM glutamine.”

[19] = reference compound at 0.025 M (so in the source)

Compound | IC50 [2] | IC50 [3] | IC50 [4] | IC50 [9] | IC50 [10] | IC50 [11] | IC50 [13] | IC50 [14] | percentage of cell survival over DMSO control, CaCo-2 ([5]; single dose 25 μM) | viability at 25 µM [15] | viability at 25 µM [16] | viability at 25 µM [17] | viability at 25 µM [6] | viability at 25 µM [7] | viability at 25 µM [8] | other results
Cc1ccc(-n2cc(COc3cccc4cnc(Nc5cccc(Cl)c5)nc34)nn2)c([N+](=O)[O-])c1 [DB18] | – | – | – | – | – | – | – | – | – | – | – | – | – | – | – | action against DYRKs kinases [1]: does not show any action
COc1cccc2c1C(=O)c1c(O)c3c(c(O)c1C2=O)C[C@@](O)(C(=O)CO)C[C@@H]3O[C@H]1C[C@H](N)[C@H](O)[C@H](C)O1 [doxorubicin, reference compound] | 0.03 µM | 0.06 µM | 0.04 µM | 0.03 µM | 0.03 µM | 0.07 µM | – | – | – | – | – | – | – | – | – | percentage of cell survival over DMSO control, CaCo-2 [5, 19]: 59%; viability [6]: 31%; viability [7]: 24%; viability [8]: 42%; viability [12]: 59%
Fc1cccc(Nc2ncc3ccc4ccccc4c3n2)c1 [Compound 4i, N-(3-fluorophenyl)benzo[h]quinazolin-2-amine] | 17 µM | 11 µM | 6 µM | 17 µM | 4 µM | 3 µM | > 25 µM | 2 µM | 34% | 60% | 11% | 59% | 49% | 59% | 36% | IC50 ([18]; on Caco-2, MDA-MB-468, HCT-116 and MCF7): 2 to 6 µM
CC(=O)O[C@H]1C(=O)[C@@]2(C)[C@H]([C@H](OC(=O)c3ccccc3)[C@]3(O)C[C@H](OC(=O)[C@H](O)[C@@H](NC(=O)c4ccccc4)c4ccccc4)C(C)=C1C3(C)C)[C@]1(OC(C)=O)CO[C@@H]1C[C@@H]2O [Taxol, reference compound] | 0.009 µM | 0.004 µM | 0.003 µM | 0.02 µM | 0.006 µM | 0.02 µM | – | 0.07 µM | – | – | – | – | – | – | – | percentage of cell survival over DMSO control, CaCo-2 [5, 19]: 36%; viability [16]: 7%; viability [17]: 27%; viability [6]: 32%; viability [8]: 30%; viability [12]: 43%
Cc1ccc(Nc2ncc3ccc4ccccc4c3n2)cc1 [Compound 4d, N-(p-tolyl)benzo[h]quinazolin-2-amine] | > 25 µM | 30 µM | 5 µM | > 25 µM | 31 µM | > 25 µM | > 25 µM | > 25 µM | 63% | 85% | 54% | 61% | 67% | 72% | 65% | –
Cc1ccccc1Nc1ncc2ccc3ccccc3c2n1 [Compound 4b, N-(o-tolyl)benzo[h]quinazolin-2-amine] | > 25 µM | > 25 µM | > 25 µM | > 25 µM | > 25 µM | > 25 µM | > 25 µM | > 25 µM | 56% | 69% | 79% | 70% | 86% | 93% | 72% | –
c1ccc(Nc2ncc3ccc4ccccc4c3n2)cc1 [Compound 4a, N-phenylbenzo[h]quinazolin-2-amine] | 1.7 µM | 34.5 µM | 4 µM | 29 µM | 6 µM | 13 µM | > 25 µM | 4.7 µM | 33% | 60% | 48% | 59% | 61% | 56% | 58% | IC50 ([18]; against HuH-7, Caco-2, MDA-MB-468 and HCT-116 cells): 1.7 to 6 µM
